For 16 compounds, IC50 and Kd results are on record in patent publication US20230148450A9, “BICYCLIC HETEROARYL COMPOUNDS AND USES THEREOF” (Revolution Medicines, Inc., priority 2019, published 2023).

A word on the IC50: it is the midpoint of a concentration-inhibition curve. The Kd is a measure of binding affinity in units of concentration.

Assay [1] deals with T1, SOS1 nucleotide exchange of KRAS (catalytic domain of SOS1, residues 564-1049; wild-type KRAS) (Homo sapiens, UniProt Q07889).
T1 construct: tagless catalytic domain of SOS1 (residues 564-1049)
T1 sequence (Q07889 564-1049): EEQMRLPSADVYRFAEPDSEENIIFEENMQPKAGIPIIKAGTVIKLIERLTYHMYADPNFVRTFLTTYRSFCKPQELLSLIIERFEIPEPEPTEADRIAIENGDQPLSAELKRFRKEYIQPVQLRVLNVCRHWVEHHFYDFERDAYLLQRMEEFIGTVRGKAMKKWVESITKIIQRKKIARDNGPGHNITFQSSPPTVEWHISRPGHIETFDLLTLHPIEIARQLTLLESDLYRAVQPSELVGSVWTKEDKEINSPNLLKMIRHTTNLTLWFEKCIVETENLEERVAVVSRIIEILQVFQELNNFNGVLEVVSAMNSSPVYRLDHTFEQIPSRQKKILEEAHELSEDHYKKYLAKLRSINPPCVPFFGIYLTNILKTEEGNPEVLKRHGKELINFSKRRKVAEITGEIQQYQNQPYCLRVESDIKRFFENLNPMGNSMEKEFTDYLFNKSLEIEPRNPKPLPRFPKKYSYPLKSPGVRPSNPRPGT
As to the kind of experiment: Mode of Action Assay: Inhibition of SOS1 Nucleotide Exchange Activity (TR-FRET). The assay is classed as biochemical. Particulars: TR-FRET signal. As to the method: The purpose of this assay was to characterize the inhibitory activity of compounds on SOS1 nucleotide exchange of KRAS. Data was reported as IC50 values based on the TR-FRET signal.
Note—the following protocol describes a procedure for monitoring the inhibition of SOS1 nucleotide exchange activity of wild-type KRAS in response to a compound of the invention. Other KRAS mutants and RAS isoforms maybe employed.
In assay buffer containing 20 mM HEPES, pH 7.5, 150 mM NaCl, 5 mM MgCl2, 0.05% Tween-20, 0.1% BSA, 1 mM DTT, concentration series of test compounds were generated spanning 100 μM to 1.7 nM over eleven 3-fold serial dilutions in a 384-well assay plate at a volume of 20 μL. The purified tagless catalytic domain of SOS1 (residues 564-1049) was first diluted in assay buffer at a concentration of 100 nM, and then 20 μL of the SOS1 containing solution was directly dispensed into compound plates. The SOS1/compound mixture was incubated at room temperature with constant mixing on an orbital shaker for 20 minutes to allow the reaction to reach equilibrium. A KRAS mixture was prepared by diluting 66.7 nM avi-tagged KRAS (residue 1-169), 3.33 nM Streptavidin-Tb and 333 nM EDA-GTP-DY-647P1 in assay buffer. This mixture was prepared immediately before addition to the SOS1/compound mixture to prevent intrinsic nucleotide exchange. Then 5 μL of the pre-incubated SOS1/compound mixture and 7.5 μL of the KRAS mixture were added sequentially in a 384-well low volume black round bottom plate and incubated at room temperature with constant shaking for 30 minutes. Time-resolved fluorescence was measured on a PerkinElmer Envision plate reader. DMSO and 10 μM of compound (i) were used as negative and positive controls, respectively.
Three replicates were performed for each compound. Data were normalized by the following: (Positive control—Sample signal)/(Positive control—negative control)*100. The data were fit using a four-parameter logistic fit.
A general note: Time-resolved FRET reads energy transfer from a long-lived donor to a nearby acceptor.

Assay [2] concerns the target T2, SOS1 catalytic domain (residues 564-1049) (Homo sapiens, UniProt Q07889).
T2 construct: SOS1 catalytic domain (residues 564-1049) immobilized on a sensor chip
T2 sequence (Q07889 564-1049): T1 sequence (Q07889 564-1049)
As to the kind of experiment: Binding affinity to SOS1 using Surface Plasmon Resonance (SPR). As to conditions: avi-tagged SOS1 catalytic domain immobilized on sensor chip; read-out: SOS1 SPR Equilibrium Kd. From the text: Potency Assay: Measurement of the Binding Affinity of Compounds of the Invention to SOS! using Surface Plasmon Resonance (SPR)
The purpose of the SPR assay was to measure the direct binding of compounds to SOS1 catalytic domain (residues 564-1049) immobilized on a sensor chip. Data was reported as equilibrium dissociation constant (Kd) values.
Using a GE Biacore 8K SPR instrument, avi-tagged SOS1 catalytic domain protein was immobilized to a level of approximately 6000 response units (RU) on a streptavidin-coated SPR sensor chip in assay buffer containing 0.01 M HEPES, 0.15 M NaCl and 0.05% v/v Surfactant P20. In assay buffer containing 2% DMSO, concentration series of test compounds were generated spanning 5 μM to 4.9 nM over ten 2-fold dilutions. For each test compound, a separate 0 μM sample was generated for use during subsequent double reference subtraction. Serially for each test compound, individual dilution samples were flowed over the immobilized SOS1 protein at a flow rate of 50 μL/minute to monitor the association with SOS1. Dissociation of bound test compound from the SOS1 protein was immediately monitored by flowing assay buffer over the sensor surface and monitoring the decrease in binding signal back to the baseline level seen in the absence of compound. This was repeated for all compound dilutions in each series. The binding level response for each test compound concentration was noted immediately prior to the end of the association phase, and a secondary plot generated showing binding response level versus test compound concentration generated for each compound dilution series.

Assay [3] has as its system cellular pERK in PC-9 cells (EGFR Ex19Del). As to the kind of experiment: Potency Assay: pERK. As to conditions: Homo sapiens; PC-9 cells (EGFR Ex19Del), 1 hour incubation, AlphaLISA p-ERK1/2; read-out: SOS1 pERK IC50. Type of assay: cell-based. From the text:
The purpose of this assay is to measure the ability of test compounds to inhibit SOS1 function in cells. SOS1 activates RAS proteins by catalyzing the conversion of […] to […] in response to receptor tyrosine kinase activation. Activation of RAS induces a sequence of cellular signaling events that results in increased phosphorylation of ERK at […] (pERK). The procedure described below measures the level of cellular pERK in response to test compounds in PC-9 cells (EGFR Ex[…]). PC-9 cells were grown and maintained using media and procedures recommended by the ATCC. On the day prior to compound addition, cells were plated in 384-well cell culture plates (40 μL/well) and grown overnight in a 37° C., 5% CO2 incubator. Test compounds were prepared in 10, 3-fold dilutions in DMSO, with a top concentration of 10 mM. On the day of the assay, 40 nL of test compound was added to each well of cell culture plate using an Echo550 liquid handler (LabCyte). Concentrations of test compound were tested in duplicate with highest test concentration being 10 μM. After compound addition, cells were incubated for 1 hour at 37° C., 5% CO2. Following incubation, culture medium was removed and cells were washed once with phosphate buffered saline. Cellular pERK level was determined using the AlphaLISA SureFire Ultra p-ERK1/2 Assay Kit (PerkinElmer). Cells were lysed in 25 μL lysis buffer, with shaking at 600 RPM at room temperature for 15 minutes. Lysate (10 μL) was transferred to a 384-well Opti-plate (PerkinElmer) and 5 μL acceptor mix was added. The plate was centrifuged at 1000 RPM for 1 minute, and incubated in the dark for 2 hours. Following this incubation, 5 μL of donor mix was added, the plate was sealed and centrifuged at 1000 RPM for 1 minute, and the mixture was incubated for 2 hours at room temperature. Signal was read on an Envision plate reader (PerkinElmer) using standard AlphaLISA settings. Analysis of raw data was carried out in Excel (Microsoft) and Prism (GraphPad). Signal was plotted vs. the decadal logarithm of compound concentration, and IC50 was determined by fitting a 4-parameter sigmoidal concentration response model.
(In general: In Alpha technology, singlet oxygen from a donor bead excites a nearby acceptor bead.)

Each structure is given as a SMILES string.

In the case of `C[C@@H](Nc1nc(Cl)nc2c1cc(C1=CCNCC1)n2C)c1cc(N)cc(C(F)(F)F)c1` [Example 39, N-[(1R)-1-[3-amino-5-(trifluoromethyl)phenyl]ethyl]-2-chloro-7-methyl-6-(1,2,3,6-tetrahydropyridin-4-yl)pyrrolo[2,3-d]pyrimidin-4-amine], the IC50 in assay [1] and in assay [3] was above 1 µM each time. Further, in assay [2], the Kd is at most 0.4 µM.

As to `Cc1nc(N[C@H](C)c2cc(N)cc(C(F)(F)F)c2)c2cc(C(=O)N3CCN(C)CC3)cn2n1` [Example 36, (R)-(4-((1-(3-amino-5-(trifluoromethyl)phenyl)ethyl)amino)-2-methylpyrrolo[2,1-f][1,2,4]triazin-6-yl)(4-methylpiperazin-1-yl)methanone], the IC50 in assay [1] and in assay [3] was below 1 µM throughout. For the same compound, the Kd in assay [2] is at most 0.4 µM.

Regarding `Cc1cn2nc(C(=O)N3CCN4CCC4C3)cc2c(N[C@H](C)c2cc(N)cc(C(F)(F)F)c2)n1` (stereo partly drawn) [Example 82], the IC50 in assay [1] and in assay [3] was below 1 µM in each case. Moreover, in assay [2], the Kd is at most 0.4 µM.

As for `C[C@@H](Nc1ncnc2sc(C(=O)N3CCN(C4COC4)CC3)cc12)c1cccc(C(F)F)c1F` [Example 84, (R)-(4-((1-(3-(difluoromethyl)-2-fluorophenyl)ethyl)amino)thieno[2,3-d]pyrimidin-6-yl)(4-(oxetan-3-yl)piperazin-1-yl)methanone], the IC50 in assay [1] and in assay [3] was below 1 µM throughout. Also, the Kd in assay [2] was at most 0.4 µM.

Turning to `C[C@@H](Nc1ncnn2cc(C(=O)N3CC4(CN(C)C4)C3)cc12)c1cccc(C(F)F)c1F` [Example 70], the IC50 in assay [1] and in assay [3] was below 1 µM throughout. Moreover, in assay [2], the Kd is at most 0.4 µM.

For `C[C@@H](Nc1nc(Cl)nc2c1nc(C(=O)N1CCOCC1)n2C)c1cccc(C(F)(F)CO)c1` [Example 103, (R)-(2-chloro-6-((1-(3-(1,1-difluoro-2-hydroxyethyl)phenyl)ethyl)amino)-9-methyl-9H-purin-8-yl)(morpholino)methanone], the IC50 in assay [1] and in assay [3] was below 1 µM each time. Further, in assay [2], the Kd was above 0.4 µM.

As for `C[C@@H](Nc1ncnn2cc(C(=O)N3CC4(C3)CN(C3COC3)C4)cc12)c1cccc(C(F)F)c1F` [Example 72], the IC50 in assay [1] and in assay [3] was below 1 µM in each case. Besides, in assay [2], the Kd is at most 0.4 µM.

On to `C[C@@H](Nc1ncnc2[nH]c(C(=O)N3CCOCC3)nc12)c1cc(N)cc(C(F)(F)F)c1` [Example 57, N-[(1R)-1-[3-amino-5-(trifluoromethyl)phenyl]ethyl]-8-(morpholine-4-carbonyl)-9H-purin-6-amine], for which the IC50 in assay [1] and in assay [3] was below 1 µM in each case. Also, the Kd in assay [2] was at most 0.4 µM.

`C[C@@H](Nc1nccc2nc(C(=O)N3CC4(C3)CN(C3CC3)C4)cn12)c1cccc(C(F)F)c1F` [Example 90]: the IC50 in assay [1] and in assay [3] was below 1 µM each time. The Kd in assay [2] was at most 0.4 µM.

For `Cc1nc(N[C@H](C)c2cc(N)cc(C(F)(F)F)c2)c2cc(C3(O)CC(O)C3)cn2n1` (stereo partly drawn) [Example 35, (R)-1-(4-((1-(3-amino-5-(trifluoromethyl)phenyl)ethyl)amino)-2-methylpyrrolo[2,1-f][1,2,4]triazin-6-yl)cyclobutane-1,3-diol], the IC50 in assay [1] and in assay [3] was above 1 µM each time. For the same compound, the Kd in assay [2] was at most 0.4 µM.

With `C[C@@H](Nc1nc(Cl)nn2cc(C(=O)N3CC4(CN(C)C4)C3)cc12)c1cccc(C(F)(F)F)c1` [Example 97], the IC50 in assay [1] and in assay [3] was below 1 µM each time. The Kd in assay [2] was at most 0.4 µM.

Regarding `Cc1cn2nc(C(=O)N3CC4CC3CN4C)cc2c(N[C@H](C)c2cc(N)cc(C(F)(F)F)c2)n1` (stereo partly drawn) [Example 81], the IC50 in assay [1] and in assay [3] was below 1 µM in each case. In addition, the Kd in assay [2] is at most 0.4 µM.

On to `C[C@@H](Nc1nc(Cl)nn2cc(C(=O)N3CC4(COC4)C3)cc12)c1cccc(C(F)F)c1F` [Example 100], for which the IC50 in assay [1] and in assay [3] was below 1 µM each time. In addition, in assay [2], the Kd was at most 0.4 µM.

As to `C[C@@H](Nc1nccc2nc(C(=O)N3CCN(C4COC4)CC3)cn12)c1cccc(C(F)F)c1F` [Example 87], the IC50 is below 1 µM in assay [1] and above 1 µM in assay [3]. Moreover, in assay [2], the Kd is at most 0.4 µM.

In the case of `Cc1nc(N[C@H](C)c2cc(N)cc(C(F)(F)F)c2)c2cc(C(=O)N3CCN(C)CC3)n(C)c2n1` [Example 37, [4-[[(1R)-1-[3-amino-5-(trifluoromethyl)phenyl]ethyl]amino]-2,7-dimethyl-pyrrolo[2,3-d]pyrimidin-6-yl]-(4-methylpiperazin-1-yl)methanone], the IC50 in assay [1] and in assay [3] was above 1 µM throughout. Further, in assay [2], the Kd was above 0.4 µM.

With `C[C@@H](Nc1ncnn2cc(N3CCOCC3)cc12)c1cc(N)cc(C(F)(F)F)c1` [Example 47, N-[(1R)-1-[3-amino-5-(trifluoromethyl)phenyl]ethyl]-6-morpholino-pyrrolo[2,1-f][1,2,4]triazin-4-amine], the IC50 in assay [1] and in assay [3] was above 1 µM in each case. The Kd in assay [2] is above 0.4 µM.
